Legend:
Assay type in all cases: in vivo
Plutella xylostella = test: Diamond back moth (Plutella xylostella) cabbage leaf-dip test; settings: 3rd instar larvae on dipped cabbage leaves, 72 hours after treatment, read-out: mortality in comparison with untreated controls
Description: The active compound was dissolved at the desired concentration in a mixture of 1:1 (vol:vol) distilled water:aceteone. Surfactant (Kinetic HV) was added at a rate of 0.01% (vol/vol).The test solution was prepared at the day of use.
Leaves of cabbage were dipped in test solution and air-dried. Treated leaves were placed in petri dishes lined with moist filter paper and inoculated with ten 3rd instar larvae. Mortality was recorded 72 hours after treatment. Feeding damages were also recorded using a scale of 0-100%.

Nephotettix virescens = test: Rice green leafhopper (Nephotettix virescens) sprayed rice seedling test; settings: adults on sprayed rice seedlings, after 72 hours, read-out: mortality in comparison with untreated controls
Description: Rice seedlings were cleaned and washed 24 hours before spraying. The active compounds were formulated in 1:1 acetone:water (vol:vol), and 0.01% vol/vol surfactant (Kinetic HV) was added. Potted rice seedlings were sprayed with 5-6 ml test solution, air dried, covered with Mylar cages cages and inoculated with 10 adults. Treated rice plants were kept at about 28-29° C. and relative humidity of about 50-60%. Percent mortality was recorded after 72 hours.

Anthonomus grandis = test: Boll weevil (Anthonomus grandis) insect diet/egg microtiter test; settings: 120 h, egg and larval mortality on sprayed insect diet, 5 days, read-out: mortality in comparison with untreated controls
Description: For evaluating control of boll weevil (Anthonomus grandis) the test unit consisted of 96-well-microtiter plates containing an insect diet and 5-10 A. grandis eggs.
(§1) The compounds were formulated using a solution containing 75% v/v water and 25% v/v DMSO. Different concentrations of formulated compounds were sprayed onto the insect diet at 5 μl, using a custom built micro atomizer, at two replications.
After application, microtiter plates were incubated at about 25±1° C. and about 75±5% relative humidity for 5 days. Egg and larval mortality was then visually assessed.

Nezara viridula = test: Green soldier stink bug (Nezara viridula) sprayed soybean pod test; settings: 120 h, late 3rd instar on sprayed soybean pods, after 5 days, read-out: mortality in comparison with untreated controls
Description: The active compound was dissolved at the desired concentration in a mixture of 1:1 (vol:vol) distilled water:acetone. Surfactant (Kinetic HV) was added at a rate of 0.01% (vol/vol). The test solution was prepared at the day of use.Soybean pods were placed in glass Petri dishes lined with moist filter paper and inoculated with ten late 3rd instar N. vindula. Using a hand atomizer, approximately 2 ml solution is sprayed into each Petri dish. Assay arenas were kept at about 25° C. Percent mortality was recorded after 5 days.

Dichromothrips corbetti = test: Orchid thrips (dichromothrips corbetti) floral-immersion test; settings: adult thrips on dipped orchid petals, 72 hours after treatment, read-out: mortality in comparison with untreated controls
Description: Dichromothrips corbetti adults used for bioassay were obtained from a colony maintained continuously under laboratory conditions. For testing purposes, the test compound is diluted in a 1:1 mixture of acetone:water (vol:vol), plus Kinetic HV ata rate of 0.01% v/v.
Thrips potency of each compound was evaluated by using a floral-immersion technique. All petals of individual, intact orchid flowers were dipped into treatment solution and allowed to dry in Petri dishes. Treated petals were placed into individual re-sealable plastic along with about 20 adult thrips. All test arenas were held under continuous light and a temperature of about 28° C. for duration of the assay. After 3 days, the numbers of live thrips were counted on each petal. The percent mortality was recorded 72 hours after treatment.

Tetranychus kanzawai = test: Red spider mite (Tetranychus kanzawai) sprayed cowpea bean test; settings: mites on sprayed cowpea beans, 72 hours after treatment, read-out: mortality in comparison with untreated controls
Description: The active compound was dissolved at the desired concentration in a mixture of 1:1 (vol:vol) distilled water:acetone. Add surfactant (Kinetic HV) was added at a rate of 0.01% (vol/vol).The test solution was prepared at the day of use.
Potted cowpea beans of 4-5 days of age were cleaned with tap water and sprayed with 1-2 ml of the test solution using air driven hand atomizer. The treated plants were allowed to air dry and afterwards inoculated with 30 or more mites by clipping a cassava leaf section from rearing population. Treated plants were placed inside a holding room at about 25-27° C. and about 50-60% relative humidity. Percent mortality was assessed 72 hours after treatment.

Spodoptera eridania = test: Southern armyworm (Spodoptera eridania) sprayed lima bean foliage test; settings: foliar, 96 h, larvae on sprayed lima bean plants, 4 days after treatment, read-out: mortality in comparison with untreated controls
Description: The active compounds were formulated in cyclohexanone as a 10,000 ppm solution supplied in tubes. The tubes were inserted into an automated electrostatic sprayer equipped with an atomizing nozzle and they served as stock solutions for which lower dilutions were made in 50% acetone:50% water (v/v). A nonionic surfactant (Kinetic®) was included in the solution at a volume of 0.01% (v/v).
Lima bean plants (variety Sieva) were grown 2 plants to a pot and selected for treatment at the 1st true leaf stage. Test solutions were sprayed onto the foliage by an automated electrostatic plant sprayer equipped with an atomizing spray nozzle. The plants were dried in the sprayer fume hood and then removed from the sprayer. Each pot was placed into perforated plastic bags with a zip closure. About 10 to 11 armyworm larvae were placed into the bag and the bags zipped closed. Test plants were maintained in a growth room at about 25° C. and about 20-40% relative humidity for 4 days, avoiding direct exposure to fluorescent light (24 hour photoperiod) to prevent trapping of heat inside the bags. Mortality and reduced feeding were assessed 4 days after treatment, compared to untreated control plants.

Heliothis virescens = test: Tobacco budworm (Heliothis virescens) insect diet/egg microtiter test; settings: 120 h, egg and larval mortality on sprayed insect diet, 5 days, read-out: mortality in comparison with untreated controls
Description: For evaluating control of tobacco budworm (Heliothis virescens) the test unit consisted of 96-well-microtiter plates containing an insect diet and 15-25 H. virescens eggs.
The compounds were formulated using a solution containing 75% v/v water and 25% v/v DMSO. Different concentrations of formulated compounds were sprayed onto the insect diet at 10 μl, using a custom built micro atomizer, at two replications.
After application, microtiter plates were incubated at about 28+1° C. and about 80+5% relative humidity for 5 days. Egg and larval mortality was then visually assessed.

Megoura viciae = test: Vetch aphid (Megoura viciae) broad bean leaf disk test; settings: foliar, 120 h, adult aphids on sprayed broad bean leaf disks, 5 days, read-out: mortality in comparison with untreated controls
Description: For evaluating control of vetch aphid (Megoura viciae) through contact or systemic means the test unit consisted of 24-well-microtiter plates containing broad bean leaf disks.
The compounds were formulated using a solution containing 75% v/v water and 25% v/v DMSO. Different concentrations of formulated compounds were sprayed onto the leaf disks at 2.5 μl, using a custom built micro atomizer, at two replications.
After application, the leaf disks were air-dried and 5- 8 adult aphids placed on the leaf disks inside the microtiter plate wells. The aphids were then allowed to suck on the treated leaf disks and incubated at about 23±1° C. and about 50±5% relative humidity for 5 days. Aphid mortality and fecundity was then visually assessed.

Halyomorpha halys = test: Brown marmorated stink bug (Halyomorpha halys) sprayed peanut/soybean seed test; settings: 120 h, adult stage, sprayed cups with peanuts and soybean seeds, after 5 days, read-out: mortality in comparison with untreated controls
Description: The active compound was dissolved at the desired concentration in a mixture of 1:1 (vol:vol) distilled water:acetone. Surfactant (Kinetic HV) was added at a rate of 0.01% (vol/vol). The test solution was prepared at the day of use.
Row peanuts and soybean seeds were placed into microwavable plastic cups and inoculated with five adult stage H. halys. Using a hand atomizer, approximately 1 ml solution is sprayed into each cup, insects and food present. A water source was provided (cotton wick with water). Each treatment is replicated 4-fold. Assay arenas are kept at about 25° C. Percent mortality was recorded after 5 days.

Myzus persicae = test: Green peach aphid (Myzus persicae) systemic test, artificial diet in microtiter plates; settings: 72 h, adult aphids on treated artificial diet, 3 days, read-out: mortality in comparison with untreated controls
From the text: For evaluating control of green peach aphid (Myzus persicae) through systemic means the test unit consisted of 96-well-microtiter plates containing liquid artificial diet under an artificial membrane.
The compounds were formulated using a solution containing 75% v/v water and 25% v/v DMSO. Different concentrations of formulated compounds were pipetted into the aphid diet, using a custom built pipetter, at two replications.
After application, 5-8 adult aphids were placed on the artificial membrane inside the microtiter plate wells. The aphids were then allowed to suck on the treated aphid diet and incubated at about 23±1 ° C. and about 50±5% relative humidity for 3 days. Aphid mortality and fecundity was then visually assessed.

Ceratitis capitata = test: Mediterranean fruitfly (Ceratitis capitata) insect diet/egg microtiter test; settings: 120 h, egg and larval mortality on sprayed insect diet, 5 days, read-out: mortality in comparison with untreated controls
Description: For evaluating control of Mediterranean fruitfly (Ceratitis capitata) the test unit consisted of microtiter plates containing an insect diet and 50-80 C. capitata eggs.
as §1
After application, microtiter plates were incubated at about 28±1° C. and about 80±5% relative humidity for 5 days. Egg and larval mortality was then visually assessed.

CC(=O)N1CC2(C1)OCc1cc(C3=CSC(c4cc(Cl)c(F)c(Cl)c4)(C(F)(F)F)C3)ccc12 (centres unmarked) [Compound I-2-2, 1-[6-[2-(3,5-dichloro-4-fluoro-phenyl)-2-(trifluoromethyl)-3H-thiophen-4-yl]spiro[1H-isobenzofuran-3,3′-azetidine]-1′-yl]ethanone]
≥ 75%: mortality at 300 ppm (Plutella xylostella) | mortality at 300 ppm (Nephotettix virescens) | mortality at 2500 ppm (Anthonomus grandis) | mortality at 300 ppm (Nezara viridula) | mortality at 300 ppm (Dichromothrips corbetti) | mortality at 300 ppm (Tetranychus kanzawai) | mortality at 10 ppm (Spodoptera eridania) | mortality at 2500 ppm (Heliothis virescens) | mortality at 2500 ppm (Megoura viciae) | mortality at 100 ppm (Halyomorpha halys) | mortality at 2500 ppm (Myzus persicae)

CCC(=O)N1CC2(C1)OCc1cc(C3=CCC(c4cc(Cl)c(F)c(Cl)c4)(C(F)(F)F)C3)ccc12 (centres unmarked) [Compound I-1-1, 1-[6-[4-(3,5-dichloro-4-fluoro-phenyl)-4-(trifluoromethyl)cyclopenten-1-yl]spiro[1H-isobenzofuran-3,3′-azetidine]-1′-yl]propan-1-one]
≥ 75%: mortality at 300 ppm (Plutella xylostella) | mortality at 2500 ppm (Ceratitis capitata) | mortality at 300 ppm (Nephotettix virescens) | mortality at 2500 ppm (Anthonomus grandis) | mortality at 300 ppm (Nezara viridula) | mortality at 300 ppm (Dichromothrips corbetti) | mortality at 300 ppm (Tetranychus kanzawai) | mortality at 10 ppm (Spodoptera eridania) | mortality at 2500 ppm (Heliothis virescens) | mortality at 2500 ppm (Megoura viciae) | mortality at 100 ppm (Halyomorpha halys) | mortality at 2500 ppm (Myzus persicae)
